Key:
Assay in all cases: Test C preemergence
Assay type in all cases: in vivo
[1] = test system: Galium (catchweed bedstraw, Galium aparine); details: for Plant response rating, Galium: scale 0 to 100, 0 no effect, 100 complete control
How it was run: (§1)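 Preemergence application to seeds in loam/sand soil, or foliar (postemergence) application to plants 2–18 cm tall in peat moss/vermiculite medium; surfactant-containing non-phytotoxic solvent vehicle; greenhouse. Visual injury vs controls at 13–15 d; 0 = no effect, 100 = complete control.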

[2] = test system: barnyardgrass (Echinochloa crus-galli); details: for Plant response rating, Barnyardgrass: scale 0 to 100, 0 no effect, 100 complete control
How it was run: as §1

[3] = test system: blackgrass (Alopecurus myosuroides); details: for Plant response rating, Blackgrass: scale 0 to 100, 0 no effect, 100 complete control
How it was run: as §1

corn (Zea mays) = details: for Plant response rating, Corn: scale 0 to 100, 0 no effect, 100 complete control
How it was run: as §1

[4] = test system: crabgrass, large (large crabgrass, Digitaria sanguinalis); details: for Plant response rating, Crabgrass, Large: scale 0 to 100, 0 no effect, 100 complete control
How it was run: as §1

[5] = test system: foxtail, giant (giant foxtail, Setaria faberii); details: for Plant response rating, Foxtail, Giant: scale 0 to 100, 0 no effect, 100 complete control
How it was run: as §1

[6] = test system: johnsongrass (Sorghum halepense); details: for Plant response rating, Johnsongrass: scale 0 to 100, 0 no effect, 100 complete control
How it was run: as §1

[7] = test system: lambsquarters (Chenopodium album); details: for Plant response rating, Lambsquarters: scale 0 to 100, 0 no effect, 100 complete control
How it was run: as §1

[8] = test system: morningglory (Ipomoea coccinea); details: for Plant response rating, Morningglory: scale 0 to 100, 0 no effect, 100 complete control
How it was run: as §1

[9] = test system: nutsedge, yellow (yellow nutsedge, Cyperus esculentus); details: for Plant response rating, Nutsedge, Yellow: scale 0 to 100, 0 no effect, 100 complete control
How it was run: as §1

[10] = test system: oilseed rape (Brassica napus); details: for Plant response rating, Oilseed Rape: scale 0 to 100, 0 no effect, 100 complete control
How it was run: as §1

[11] = test system: pigweed (Amaranthus retroflexus); details: for Plant response rating, Pigweed: scale 0 to 100, 0 no effect, 100 complete control
How it was run: as §1

[12] = test system: ragweed (common ragweed, Ambrosia elatior); details: for Plant response rating, Ragweed: scale 0 to 100, 0 no effect, 100 complete control
How it was run: as §1

[13] = test system: ryegrass, Italian (Italian ryegrass, Lolium multiflorum); details: for Plant response rating, Ryegrass, Italian: scale 0 to 100, 0 no effect, 100 complete control
How it was run: as §1

soybean (Glycine max) = details: for Plant response rating, Soybean: scale 0 to 100, 0 no effect, 100 complete control
How it was run: as §1

[14] = test system: velvetleaf (Abutilon theophrasti); details: for Plant response rating, Velvetleaf: scale 0 to 100, 0 no effect, 100 complete control
How it was run: as §1

[15] = test system: wheat (winter wheat, Triticum aestivum); details: for Plant response rating, Wheat: scale 0 to 100, 0 no effect, 100 complete control
How it was run: as §1

[16] = 31 g ai/ha, 0 is no effect, 100 is complete control

O=C1NCC(c2ccc(I)cc2)C1C(=O)Nc1cccc(F)c1F (racemic) [Compound 700]
35: Plant response rating, Ryegrass, Italian ([13]; 125 g ai/ha)
50: Plant response rating, Galium ([1]; 125 g ai/ha) | Plant response rating, Corn (corn (Zea mays); 250 g ai/ha) | Plant response rating, Oilseed Rape ([10]; 250 g ai/ha) | Plant response rating, Pigweed ([11]; 125 g ai/ha) | Plant response rating, Ragweed ([12]; 62 g ai/ha)
65: Plant response rating, Pigweed ([11]; 250 g ai/ha)
25: Plant response rating, Lambsquarters ([7]; 62 g ai/ha)
98: Plant response rating, Crabgrass, Large ([4]; 250 g ai/ha)
75: Plant response rating (scale of 0 to 100), Barnyardgrass [2, 16] | Plant response rating, Ragweed ([12]; 125 g ai/ha) | Plant response rating, Ragweed ([12]; 250 g ai/ha)
100: Plant response rating (scale of 0 to 100), Johnsongrass [6, 16] | Plant response rating (scale of 0 to 100), Soybean (soybean (Glycine max); [16])
90: Plant response rating, Barnyardgrass ([2]; 125 g ai/ha) | Plant response rating, Foxtail, Giant ([5]; 125 g ai/ha) | Plant response rating, Foxtail, Giant ([5]; 250 g ai/ha)
15: Plant response rating, Pigweed ([11]; 62 g ai/ha) | Plant response rating, Soybean (soybean (Glycine max); 125 g ai/ha)
10: Plant response rating, Corn (corn (Zea mays); 125 g ai/ha) | Plant response rating, Johnsongrass ([6]; 125 g ai/ha) | Plant response rating (scale of 0 to 100), Ragweed [12, 16]
45: Plant response rating, Ryegrass, Italian ([13]; 250 g ai/ha)
70: Plant response rating, Wheat ([15]; 250 g ai/ha)
60: Plant response rating, Blackgrass ([3]; 125 g ai/ha) | Plant response rating, Johnsongrass ([6]; 250 g ai/ha) | Plant response rating, Oilseed Rape ([10]; 125 g ai/ha)
95: Plant response rating, Barnyardgrass ([2]; 250 g ai/ha) | Plant response rating (scale of 0 to 100), Crabgrass, Large [4, 16] | Plant response rating, Crabgrass, Large ([4]; 62 g ai/ha) | Plant response rating, Crabgrass, Large ([4]; 125 g ai/ha)
80: Plant response rating (scale of 0 to 100), Foxtail, Giant [5, 16] | Plant response rating, Lambsquarters ([7]; 125 g ai/ha)
55: Plant response rating, Blackgrass ([3]; 62 g ai/ha)
30: Plant response rating, Oilseed Rape ([10]; 62 g ai/ha)
40: Plant response rating, Galium ([1]; 250 g ai/ha) | Plant response rating, Velvetleaf ([14]; 250 g ai/ha)
85: Plant response rating, Barnyardgrass ([2]; 62 g ai/ha) | Plant response rating, Blackgrass ([3]; 250 g ai/ha) | Plant response rating, Foxtail, Giant ([5]; 62 g ai/ha) | Plant response rating, Lambsquarters ([7]; 250 g ai/ha)
20: Plant response rating (scale of 0 to 100), Blackgrass [3, 16] | Plant response rating, Ryegrass, Italian ([13]; 62 g ai/ha) | Plant response rating, Velvetleaf ([14]; 125 g ai/ha)
0: Plant response rating (scale of 0 to 100), Galium [1, 16] | Plant response rating, Galium ([1]; 62 g ai/ha) | Plant response rating (scale of 0 to 100), Corn (corn (Zea mays); [16]) | Plant response rating, Corn (corn (Zea mays); 62 g ai/ha) | Plant response rating, Johnsongrass ([6]; 62 g ai/ha) | Plant response rating (scale of 0 to 100), Lambsquarters [7, 16] | Plant response rating (scale of 0 to 100), Morningglory [8, 16] | Plant response rating, Morningglory ([8]; 62 g ai/ha) | Plant response rating, Morningglory ([8]; 125 g ai/ha) | Plant response rating, Morningglory ([8]; 250 g ai/ha) | Plant response rating (scale of 0 to 100), Nutsedge, Yellow [9, 16] | Plant response rating, Nutsedge, Yellow ([9]; 62 g ai/ha) | Plant response rating, Nutsedge, Yellow ([9]; 125 g ai/ha) | Plant response rating, Nutsedge, Yellow ([9]; 250 g ai/ha) | Plant response rating (scale of 0 to 100), Oilseed Rape [10, 16] | Plant response rating (scale of 0 to 100), Pigweed [11, 16] | Plant response rating (scale of 0 to 100), Ryegrass, Italian [13, 16] | Plant response rating, Soybean (soybean (Glycine max); 62 g ai/ha) | Plant response rating, Soybean (soybean (Glycine max); 250 g ai/ha) | Plant response rating (scale of 0 to 100), Velvetleaf [14, 16] | Plant response rating, Velvetleaf ([14]; 62 g ai/ha) | Plant response rating (scale of 0 to 100), Wheat [15, 16] | Plant response rating, Wheat ([15]; 62 g ai/ha) | Plant response rating, Wheat ([15]; 125 g ai/ha)

— US12077503B2, “Substituted cyclic amides and their use as herbicides” (FMC CORPORATION, priority 2015, dated 2024)
